This note sets out measurements from patent EP3334759B1, “LACTOFERRIN FRAGMENT FOR THE USE AS ANTIBACTERIAL AND ANTIVIRAL AGENT” (Farmagens Health Care Srl, priority 2015, dated 2019).

For one data set, the system named is Vero cell line. The class given is cell-based, Cercopithecus aethiops. As for the experimental part:
MTT assay: cells of Vero cell line (ATCC CRL-1586™ kidney epithelial cells of Cercopithecus aethiops) were cultivated at the appropriate growth conditions as recommended by the supplier in 96-well plates at a concentration of 2 × 10^4 cells/well and treated with the peptides according to the invention at different concentrations diluted in growth medium (1, 5, 10, 20, 50, 100, 250 mM) for 3, 10 and 24 hours. Subsequently, the medium was aspirated and the cells incubated at 37 °C for 3 hours with 10 µl of MTT (bromide of 3-(4,5-dimethylthiazol-2-yl)-2,5-diphenyltetrazolium), a vital dye able to enter the mitochondria and be metabolized by succinate dehydrogenase complex to formazan salts, determining a violet coloration in those cells. Afterward, the supernatant was discharged and isopropanol (100 uL) was added to each well to dissolve the produced salts. The reaction was allowed to proceed by incubation at room temperature in tilting agitation for 20 minutes, then spectrophotometric reading was performed at 570nm to assess cell viability in terms of proliferative inhibition and cell growth.

The subject of another data set is Human red blood cells. The format is cell-based. The protocol:
Human red blood cells from healthy donors have been isolated and used to performed the hemolytic assay. The peptide fragments of lactoferrin of SEQ ID No. 1 and SEQ ID No. 2 at different concentrations (1, 5, 10, 20, 50, 100, 250 mM) were added to the suspension of erythrocytes to a final volume of 100 µl. Samples were incubated under stirring at 37 °C for 60 min. The hemoglobin release was monitored by measuring the absorbance (Abs) of the supernatant at 540 nm. As negative control, i.e. zero hemolysis (blank), red cells resuspended in PBS were used, whereas completely lysed erythrocytes were used as a positive control for 100% hemolysis. The percentage of hemolysis was calculated using the following equation: % Hemolysis = [(SampleAbs−negativecontrolAbs)/(positivecontrolAbs−negativecontrolAbs)] × 100. [formula]

Peptide text beside a SMILES is read from it. Bounds are passed on as bounds.

With `CC(C)C[C@H](NC(=O)CNC(=O)[C@H](CS)NC(=O)[C@H](CCCCN)NC(=O)CNC(=O)[C@H](C)NC(=O)[C@@H](NC(=O)[C@@H](N)Cc1ccc(O)cc1)[C@@H](C)O)C(=O)N[C@H](C(=O)N1CCC[C@H]1C(=O)N[C@H](C(=O)N[C@@H](CC(C)C)C(=O)N[C@@H](C)C(=O)N[C@@H](CCC(=O)O)C(=O)N[C@@H](CC(N)=O)C(=O)N[C@@H](CCCNC(=N)N)C(=O)N[C@@H](CCCCN)C(=O)N[C@H](C(=O)N[C@@H](CO)C(=O)N[C@@H](CCCCN)C(=O)N[C@@H](Cc1ccc(O)cc1)C(=O)N[C@@H](CO)C(=O)N[C@@H](CO)C(=O)N[C@@H](CC(C)C)C(=O)N[C@@H](CC(=O)O)C(=O)N[C@@H](CS)C(=O)N[C@H](C(=O)N[C@@H](CC(C)C)C(=O)N[C@@H](CCCNC(=N)N)C(=O)N1CCC[C@H]1C(=O)O)C(C)C)[C@@H](C)O)C(C)C)C(C)C` [SEQ ID No. 2] (H-YTAGKCGLVPVLAENRKTSKYSSLDCVLRP-OH), the “toxicity, measured as a function of cellular integrity” value with Vero cell line is at most 20%. For the same compound, the “toxicity towards the erythrocytes (hemolysis)” value in the data set with Human red blood cells is “not toxic”.

On to `CC(C)C[C@H](NC(=O)[C@H](CCC(N)=O)NC(=O)[C@H](Cc1ccccc1)NC(=O)[C@H](CO)NC(=O)[C@H](CCCNC(=N)N)NC(=O)[C@H](CO)NC(=O)[C@H](CCCCN)NC(=O)[C@H](CC(N)=O)NC(=O)[C@H](CCCCN)NC(=O)CNC(=O)[C@H](Cc1ccccc1)NC(=O)[C@@H](N)CCCCN)C(=O)N[C@@H](Cc1ccccc1)C(=O)NCC(=O)N[C@@H](CO)C(=O)N1CCC[C@H]1C(=O)N1CCC[C@H]1C(=O)NCC(=O)N[C@@H](CCC(N)=O)C(=O)N[C@@H](CCCNC(=N)N)C(=O)N[C@@H](CC(=O)O)C(=O)N[C@@H](CC(C)C)C(=O)N[C@@H](CC(C)C)C(=O)N[C@@H](Cc1ccccc1)C(=O)N[C@@H](CCCCN)C(=O)N[C@@H](CC(=O)O)C(=O)O` [SEQ ID No. 1] (H-KFGKNKSRSFQLFGSPPGQRDLLFKD-OH), for which the “toxicity, measured as a function of cellular integrity” value with Vero cell line was at most 20%. Moreover, the “toxicity towards the erythrocytes (hemolysis)” value with Human red blood cells is recorded as “not toxic”.
